# Experimental data reported in patent publication US20240115554A1, “METHODS FOR TREATING OBSTRUCTIVE HYPERTROPHIC CARDIOMYOPATHY” (Cytokinetics, Incorporated, priority 2022, published 2024).
# How the values were obtained:
# Type in all cases: in vivo, human
# [1] = system: patients with symptomatic obstructive HCM (oHCM); test: Phase 2 trial: cardiac biomarkers (NT-proBNP, hs-troponin)
# Procedure: Echocardiograms obtained every 2 weeks and 2 weeks after the last dose were analyzed for several key structural and physiologic metrics and N-terminal prohormone of brain natriuretic peptide (NT-proBNP). Secondary results from the clinical study included data from Cohort 3 (n=13). […] Overall, treatment duration for each patient in the study was 10 weeks with an echocardiogram conducted 2 weeks after the last dose. Efficacy endpoints included resting and provoked LVOT gradients, NYHA class, and NT-proBNP.
# [2] = system: patients with symptomatic oHCM; test: Open-label extension: echocardiography (LVOT-G, LVEF)
# Procedure: Patients were up-titrated to Dose 2 if either of the following conditions were met on echocardiography: (1) resting LVOT-G ≥30 mmHg and the biplane LVEF ≥50%; or (2) resting LVOT-G <30 mmHg, post-Valsalva LVOT-G ≥50 mmHg, and the biplane LVEF ≥50%. […] If LVEF was <50%, treatment was discontinued. If LVEF was <40%, treatment is interrupted.
# Ambulatory cardiac monitoring is performed on weeks 48, 96, 144, 192 and 240. Cardiac magnetic resonance is monitored at weeks 48, 144 and 240. (See FIG. 26).
# At Week 2, each patient has a truncated echocardiogram following administration of their dose. Patients are up-titrated to Dose 2 if post-Valsalva LVOT-G ≥30 mmHg, and the biplane LVEF ≥55%. […] If LVEF is <50%, treatment is discontinued.
# At Weeks 4, 6, 12, and every 12 weeks thereafter, each patient has an echocardiogram or truncated echocardiogram following administration of their dose (a truncated echocardiogram at weeks 4 and 6; and an echocardiogram at week 12 and every 12 weeks thereafter) to determine whether additional dose titration is needed (see Table 21 and Table 22). Patient reported outcomes, laboratory assessments, measurements of NT-proBNP, hs-cTnI, and other biomarkers are performed at week 12 and every 12 weeks thereafter. Ambulatory cardiac monitoring is performed on weeks 48, 96, 144, 192 and 240 Cardiac magnetic resonance is monitored at weeks 48, 144 and 240. If a patient develops an LVEF <40% after the Week 2 visit, a repeat echocardiogram may be performed to confirm the initial finding (preferably within 24 hours). If the echocardiography findings are confirmed, the patient will undergo a ≥2-day drug holiday.
# Echocardiographic parameters to be measured at least include the left ventricular parameters (resting left ventricular outflow tract pressure gradient (LVOT-G), post-Valsalva LVOT-G, LVEF, LVFS, left ventricular strain, left ventricular end diastolic volume (LVEDV), left ventricular end systolic volume (LVESV), LV Stroke Volume), septal and free wall thickness, E/e′, E/A, LA volume.
# [3] = system: patients with symptomatic oHCM; test: Open-label extension: NYHA functional class
# Procedure: NYHA Functional Classification is recorded. When available, patients will complete patient-reported outcome (PRO) questionnaires: Kansas City Cardiomyopathy Questionnaire (KCCQ), Seattle Angina Questionnaire-7 (SAQ-7), EuroQol 5-Dimension 5-Level Instrument (EQ-5D-5L), Patient's Global Impression of Change (PGI-C) Scale, Clinical Global Impressions (CGI) Scale, SF-36 Physical Functioning Subscale (SF-36 PFS) as specified in Table 23.
# [4] = by week 48, Examples 3a and 3b interim
smiles,measurement,setting,value
"CCc1nc(-c2ccc3c(c2)CC[C@H]3NC(=O)c2cnn(C)c2)no1 [aficamten, (R)—N-(5-(5-ethyl-1,2,4-oxadiazol-3-yl)-2,3-dihydro-1H-inden-1-yl)-1-methyl-1H-pyrazole-4-carboxamide]",patients with at least some reduction in NT-proBNP levels,[1]; 25 out of the 27 patients on aficamten,93%
same,proportional reduction in NT-proBNP levels compared to placebo,[1]; week 10,62%
same,reduction in LVOT gradients over time,"[2]; Weeks 2-24, site reads, Example 3a",significant and sustained reductions in LVOT gradients
same,Δ LVEF,[2]; baseline to week 48,−5±3%
same,Δ Valsalva LVOT-G mean,[2]; baseline to week 48,−47 mmHg
same,ΔResting LVOT-G mean,[2]; baseline to week 48,−32 mmHg
same,reductions in LVEF over time,"[2]; through Week 24, Example 3a",minimal and stable reductions in LVEF
same,patients with worsening in NYHA class from baseline,"[3]; Example 3a, preliminary",No patients
same,patients with NYHA class improvement of one or more classes,"[3]; Example 3a, up to 6 months",about 80%
same,patients with NYHA FC worsening,[3]; [4],none
same,patients with ≥1 NYHA FC improvement,[3]; [4],88%
same,patients in NYHA class II,"[3]; week 12 (baseline 47%), Example 3a",52%
same,patients in NYHA class III,"[3]; week 12 (baseline 53%), Example 3a",7%
same,patients in NYHA class I,"[3]; week 12, Example 3a",41%
same,patients in NYHA class I,"[3]; week 24, Example 3a",56%
same,patients in NYHA class II,"[3]; week 24, Example 3a",39%
same,patients in NYHA class III,"[3]; week 24, Example 3a",6%
